In the series the test system is HeLa cells. The experiment in a line: Permeability of free dye and probes in live cells (fluorescence imaging). The format is cell-based, human. The settings on record: HeLa cells, DMSO/STS 1 μM 4 h, then probe 24 μM 1 h at 4 °C or 37 °C, one-photon imaging. Here is the method: Supplementary Figure 5. Detection of caspase activities in live mammalian cells. (a) One-photon images of AAN (5 μM)/probes (24 μM)/DMSO (blank) in live HeLa cells after 1-h incubation together with LysoTracker. (Panels 1-7) bright field; (Panels 8-14) λex = 405 nm, λem = 420-480 nm (indicative of probes, blue); (Panels 15-21) λex = 405 nm, λem = 470-500 nm (indicative of AAN, green); (Panels 22-28) LysoTracker (λex = 543 nm, λem = 560-615 nm, red); (Panels 29-35) merged images of blue/red channels. Scale bar: 20 μm. (b) Bioimaging of NIH/3T3 cells transfected with active caspase-1 (Panels 2/3/5/6; 50 ng)/caspase-3 (Panels 8/9; 15 ng)/caspase-8 (Panels 11/12; 5 ng) with/without inhibitor treatment (Panels 3/6/9/12, 50 μM of Z-VAD-FMK incubated for 1 h before probes were added) as well as control cells (Panels 1/4/7/10, no caspase transfection) by using C1RB (24 μM)/C1FS (12 μM) for caspase-1, C3RA (24 μM) for caspase-3 and C8RA (24 μM) for caspase-8. Cells were co-stained with membrane tracker. (Green) signals from caspase-cleaved probes (λex = 760 nm, λem = 480-550 nm for all probes, except for C1FS with λem = 450-550 nm). (Red) membrane tracker (λex = 650 nm, λem = 655-740 nm). (Inset) bright field. Scale bar = 10 μm. […]
XTT assay. The cytotoxicity of our probes was determined by using the XTT colorimetric cell proliferation kit (Roche) following manufacturer’s guidelines. […]

From paper PMC4876444, “Two-Photon Enzymatic Probes Visualizing Sub-cellular/Deep-brain Caspase Activities in Neurodegenerative Models” (Scientific Reports, 2016) come the findings set out here.

With `CC(=O)N[C@@H](CC(=O)O)C(=O)N[C@@H](CCC(=O)O)C(=O)N[C@H](C(=O)N[C@@H](CC(=O)O)C(=O)Nc1ccc2cc(C(C)=O)ccc2c1)C(C)C` [C3RA, Ac-DEVD-AAN], the “endocytosis and endo/lysosomal trapping of the probe” value was “no obvious”.
